# Results published in US6310095A, “Inhibitors of protein isoprenyl transferases” (University of Pittsburgh, priority 1998, dated 2001).
# Structures can show the parent of a compound that is named as a salt.
# Target: T1, protein farnesyltransferase (Rattus norvegicus, UniProt Q02293+Q04631)
# T1 construct: Rat brain protein farnesyltransferase activity is measured; from tissue; host or cells: rat brain; purified according to Reiss et al., Cell 62:81-88 (1990), steps one through three
# Experiment: in vitro inhibition of protein farnesyltransferase (scintillation proximity assay, biotin-K Ras B fragment)
# Format: biochemical
# Conditions: at 1 × 10^-6 M
# Summary of the method: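 Rat brain enzyme, purified through three steps, in a scintillation proximity assay kit with biotin-K Ras B fragment substrate at 0.1 mM final. Value is % inhibition of farnesylation.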
row,% inhibition of farnesyltransferase [%],SMILES
1,89,CSCC[C@H](NC(=O)c1ccc(/C=C/c2ccc(Oc3ccccc3)nn2)cc1-c1ccccc1C)C(=O)O [Example 810]
2,94,CSCC[C@H](NC(=O)c1ccc(/C=C/c2cnc(Oc3ccccc3)cn2)cc1-c1ccccc1C)C(=O)O [Example 812]
3,95,CSCC[C@H](NC(=O)c1ccc(CCc2cnc(Oc3ccccc3)cn2)cc1-c1ccccc1C)C(=O)O [Example 813]
4,90,CSCC[C@H](NC(=O)c1ccc(CN2CCC[C@H]2COCc2ccccc2)cc1-c1ccccc1C)C(=O)O [Example 824]

row,SMILES,% inhibition of farnesyltransferase [%]
1,CSCC[C@H](NC(=O)c1ccc(COC2(c3ccccc3)CCN(C(=O)OC(C)(C)C)CC2)cc1-c1ccccc1C)C(=O)[O-].[Li+] [Example 816],87

# Same assay, conditions: at 1 × 10^-6 M; read-out: % inhibition of farnesyltransferase
row,inhibition at 1 µM [%],SMILES
1,92,"CSCC[C@H](NC(=O)c1ccc(CN(Cc2ccco2)C(C)C)cc1-c1ccccc1C)C(=O)O [Example 831, N-[4-N-(furan-2-ylmethyl)-N-isopropylaminomethyl-2-(2-methylphenyl)benzoyl]methionine lithium salt]"
2,80,"CSCC[C@H](NC(=O)c1ccc(CN(Cc2ccoc2)C(C)C)cc1-c1ccccc1C)C(=O)O [Example 832, N-[4-N-(furan-3-ylmethyl)-N-isopropylainomethyl-2-(2-methylphenyl)benzoyl]methionine lithium salt]"
3,55,"CSCC[C@H](NC(=O)c1ccc(CN(Cc2ccccc2)Cc2ccccc2)cc1-c1ccccc1)C(=O)O [Example 834, N-[4-N,N-dibenzylaminomethyl-2-phenylbenzoyl]methionine lithium salt]"
4,96,"CSCC[C@H](NC(=O)c1ccc(CN(CCc2ccccc2)C(C)C)cc1-c1ccccc1C)C(=O)O [Example 835, N-[14-N-(2-phenylethyl)-N-isoprolpylaminomethyl-2-(2-methylphenyl)benzoyl]methionine lithium salt]"
5,92,"CSCC[C@H](NC(=O)c1ccc(CN(Cc2ccccc2)c2ccccc2C(C)=O)cc1-c1ccccc1C)C(=O)O [Example 844, N-[4-N-(N-benzyl-N-(2-acetylphenyl)aminomethyl)-2-(2-methylphenyl)benzoyl]methionine lithium salt]"
6,85,"CSCC[C@H](NC(=O)c1ccc(CN(Cc2ccccc2)c2ccccc2Cl)cc1-c1ccccc1C)C(=O)O [Example 846, N-[4-N-(N-benzyl-N-(2-chlorophenyl)aminomethyl)-2-(2-methylphenyl)benzoyl]methionine lithium salt]"

# Same assay, conditions: at 1 × 10^-7 M
row,% inhibition of farnesyltransferase [%],SMILES
1,85,CSCC[C@H](NC(=O)c1ccc(CCc2ccc(Oc3ccccc3)nn2)cc1-c1ccccc1C)C(=O)O [Example 811]
2,78,CSCC[C@H](NC(=O)c1ccc(COCc2ccc(-c3ccc(Cl)cc3)o2)cc1-c1ccccc1C)C(=O)NS(C)(=O)=O [Example 818]
3,93,CSCC[C@H](NC(=O)c1ccc(COCC2CCC(c3ccc(Cl)cc3)O2)cc1-c1ccccc1C)C(=O)O (some centres unmarked) [Example 822]

row,SMILES,% inhibition of farnesyltransferase [%]
1,CSCC[C@H](NC(=O)c1ccc(COC2CCC(NC(=O)OC(C)(C)C)CC2)cc1-c1ccccc1C)C(=O)[O-].[Li+] (some centres unmarked) [Example 817],60
2,CCCCC(OCc1ccc(C(=O)N[C@@H](CCSC)C(=O)[O-])c(-c2ccccc2C)c1)c1ccco1.[Li+] (some centres unmarked) [Example 825],79

# Same assay, conditions: at 1 × 10^-7 M; read-out: % inhibition of farnesyltransferase
row,inhibition at 0.1 µM [%],SMILES
1,63,"COc1ccccc1N(Cc1ccccc1)Cc1ccc(C(=O)N[C@@H](CCSC)C(=O)O)c(-c2ccccc2C)c1 [Example 839, N-[4-(N-benzyl-N-(2-methoxyphenyl)aniinomethyl)-2-(2-methylphenyl)benzoyl]methionine lithium salt]"

# Same assay, conditions: at 1 × 10^-8 M
row,SMILES,% inhibition of farnesyltransferase [%]
1,CSCC[C@H](NC(=O)c1ccc(COCc2ccc(-c3ccc(Cl)cc3)o2)cc1-c1ccccc1C)C(=O)NS(=O)(=O)c1ccccc1 [Example 819],76
2,CSCC[C@H](NC(=O)c1ccc(COCc2ccc(-c3ccc(C(C)C)cc3)o2)cc1-c1ccccc1C)C(=O)[O-].[Li+] [Example 820],66
3,CSCC[C@H](NC(=O)c1ccc(COCc2ccc(-c3ccc(N(C)C)cc3)o2)cc1-c1ccccc1C)C(=O)O [Example 821],75
4,CCCCC(OCc1ccc(C(=O)N[C@@H](CCSC)C(=O)[O-])c(-c2ccccc2C)c1)c1ccc(-c2ccc(Cl)cc2)o1.[Li+] (some centres unmarked) [Example 826],92
5,CSCC[C@H](NC(=O)c1ccc(COCc2occc2-c2ccc(Cl)cc2)cc1-c1ccccc1C)C(=O)[O-].[Li+] [Example 827],77
6,CSCC[C@H](NC(=O)c1ccc(COC(Cc2ccccc2)c2cncs2)cc1-c1ccccc1C)C(=O)[O-].[Li+] (some centres unmarked) [Example 828],87
7,CSCC[C@H](NC(=O)c1ccc(COCc2oc(-c3ccc(Cl)cc3)c(Cl)c2Cl)cc1-c1ccccc1C)C(=O)[O-].[Li+] [Example 829],92

# Same assay, conditions: at 1 × 10^-8 M; read-out: % inhibition of farnesyltransferase
row,inhibition at 0.01 µM [%],SMILES
1,78,"COc1cccc(N(Cc2ccccc2)Cc2ccc(C(=O)N[C@@H](CCSC)C(=O)O)c(-c3ccccc3C)c2)c1 [Example 833, N-[4-N-benzyl-N-3-methoxyphenylaminomethyl-2-(2-methylphenyl)benzoyl]methionine lithium salt]"
2,95,"CSCC[C@H](NC(=O)c1ccc(CN(Cc2ccccc2)c2cncnc2)cc1-c1ccccc1C)C(=O)O [Example 836, N-[4-N-benzyl-N-pyrimidin-5-ylaminomethyl-2-(2-methylphenyl)benzoyl]methionine lithium salt]"
3,91,"CSCC[C@H](NC(=O)c1ccc(CN(Cc2ccc3c(c2)OCO3)c2cncnc2)cc1-c1ccccc1C)C(=O)O [Example 837, lithium salt]"
4,92,"CSCC[C@H](NC(=O)c1ccc(CN(Cc2ccc3c(c2)OCO3)c2cnccn2)cc1-c1ccccc1C)C(=O)O [Example 838, N-[4-N-(1,3-benzodiox-5-yl)-N-pyridizin-2-ylaminomethyl-2-(2-methylphenyl)benzoyl]methionine lithium salt]"
5,73,"COc1ccc(N(Cc2ccccc2)Cc2ccc(C(=O)N[C@@H](CCSC)C(=O)O)c(-c3ccccc3C)c2)cc1 [Example 840, N-[4-(N-benzyl-N-(4-methoxyphenyl)aaminomethyl)-2-(2-methylphenyl)benzoyl]methionine lithium salt]"
6,96,"CSCC[C@H](NC(=O)c1ccc(CN(Cc2ccccc2)c2ccc([N+](=O)[O-])cc2)cc1-c1ccccc1C)C(=O)O [Example 843, N-[4-(N-benzyl-N-(4-nitrophenyl)aninomethyl)-2-(2-methylphenyl)benzoyl]methionine lithium salt]"
7,85,"CSCC[C@H](NC(=O)c1ccc(CN(Cc2ccccc2)c2cccc(C(C)=O)c2)cc1-c1ccccc1C)C(=O)O [Example 845, N-[4-N-(N-benzyl-N-(3-acetylphenyl)aninomethyl)-2-(2-methylphenyl)benzoyl]methionine lithium salt]"

# Same assay, conditions: read-out: % inhibition of farnesyltransferase
row,SMILES,inhibition at 0.01 µM [%]
1,"CSCC[C@H](NC(=O)c1ccc(CN(Cc2ccccc2)c2cccc([N+](=O)[O-])c2)cc1-c1ccccc1C)C(=O)O [Example 842, N-[4-(N-benzyl-N-(3-nitrophenyl)aminomethyl)-2-(2-methylphenyl)benzoyl]methionine lithium salt]",88
